# From patent US11535599B2, “Benzisoxazole derivative” (Sumitomo Pharma Co., Ltd., priority 2020, dated 2022)
# Tests used:
# [1] = Thermogravimetric analysis (TGA); type: physicochemical; conditions: until melting temperature
# Protocol: Thermogravimetric analysis: the thermogravimetric analysis (TGA) was carried out with a TGA instrument (TGA Q500, TA Instruments, New Castle, Del., USA). For each trial, about 1-10 mg of the solid sample was put in an open aluminium pot, and heated at a rate of 5-10° C./min under a nitrogen purge of 60 mL/min. The data analysis was carried out with Universal Analysis 2000 Version 4.1D (TA Instruments, New Castle, Del., USA).
# [2] = Dynamic vapor adsorption (DVS), hygroscopicity; type: physicochemical; conditions: 0-90% RH, 25° C.
# Protocol: Dynamic vapor adsorption: the hygroscopicity was evaluated with a dynamic vapor adsorption (DVS) instrument (IGAsorp, Hiden Isochema, Warrington, England) at room temperature. The water adsorption/desorption was studied as a function of relative humidity (RH) in the range of 0-90% at 25° C. The relative humidity in the chamber was made to increase by 10% RH, and the humidity was retained until the humidity state of the atmosphere and the weight variation of solid achieved equilibrium. The equilibration test was continued until the test was passed or failed 5 or 10 hours later. At this time point, RH increased by 10%, and the absorption process was repeated until the RH achieved to 90% RH and the humidity state achieved equilibrium. During the test, the moisture sorption was being monitored. For the desorption, the relative humidity was decreased in a similar manner to measure a perfect adsorption/desorption cycle. The cycle was repeated as appropriate. All the experiments were operated in dm/dt mode (weight variation over time) to determine each equilibrating endpoint. About 5-10 mg of the solid was used. The date analyses were carried out with Hisorp v4.02 (Hiden Isochema, Warrington, England).
# [3] = Differential scanning calorimetry (DSC); type: physicochemical
# Protocol: Differential scanning calorimetry: the thermal characteristic was evaluated with a differential scanning calorimetry (DSC) instrument (DSCQ1000, TA Instruments, New Castle, Del., USA). For each trial, about 1-10 mg of the solid sample was put in a standard aluminium pot aerated with a pinhole, and heated at a rate of 5-10° C./min under a nitrogen purge of 50 mL/min. The data analysis was carried out with Universal Analysis 2000 Version 4.1D (TA Instruments, New Castle, Del., USA).
# [4] = Shaking suspensions of crystalline forms in solvents (form conversion); type: physicochemical; conditions: shaking forms I-III in several kinds of solvents for 9-11 days
# Protocol: Crystalline Example 13 of form III can be prepared by shaking a suspension of Example 13 in an organic solvent (e.g. ethanol, chloroform, acetonitrile, tetrahydrofuran, ethyl acetate, acetone, and tetrahydrofuran/heptane mixture (1:1)) at about 50° C. for 9-11 days. Or, it can be prepared by shaking a suspension of Example 13 in an organic solvent (e.g. acetonitrile, ethyl acetate, acetone, acetone/water mixture (1:1), and tetrahydrofuran/heptane mixture (1:1)) at about 25° C. for 9-11 days. Or, it can be prepared by shaking a suspension of a mixture of forms I and II of Example 13 in an organic solvent (e.g. ethanol, 2-propanol, chloroform, acetonitrile, tetrahydrofuran, ethyl acetate, acetone, and tetrahydrofuran/heptane mixture (1:1)) at about 50° C. for 9-11 days. Or, it can be prepared by shaking a suspension of a mixture of forms I and II of Example 13 in an organic solvent (e.g. 2-propanol, chloroform, acetonitrile, tetrahydrofuran, ethyl acetate, acetone, methanol/water mixture (1:1), 2-propanol/water mixture (1:1), acetone/water mixture (1:1), and tetrahydrofuran/heptane mixture (1:1)) at about 25° C. for 9-11 days. Or, it can be prepared by heating a solution of Example 13 in tert-butyl methyl ether at about 80° C. for about one hour, and leaving the solution to stand at room temperature for a day. […]
# [5] = tested on: oxaliplatin chemotherapy-induced peripheral neuropathy model; experiment: Anti-allodynia effect in chemotherapy-induced peripheral neuropathy model (acetone test); type: in vivo, rat; conditions: Example 13 100 mg/kg oral once a day 17 times; duloxetine 30 mg/kg oral single
# From the text: As one of chemotherapy-induced peripheral neuropathy, sensory disturbance due to neuropathy caused by a platinating agent that is an anticancer agent such as cisplatin and oxaliplatin is known, and the symptom is difficult to be recovered even after the medication is discontinued. The therapeutic effect for sensory disturbance caused by repetitive administration of oxaliplatin was studied in the present test.
# To male Crl: CD (SD) rats (7 weeks old) (CHARLES RIVER LABORATORIES JAPAN, INC.), oxaliplatin (5 mg/kg) was intraperitoneally administered for the two consecutive days in a week, totally 6 times, to prepare chemotherapy-induced peripheral neuropathy models. The compound of Example 13 (100 mg/kg) was repeatedly orally administered once a day, totally 17 times. […] In the acetone test, 0.1 mL of acetone was sprayed to the foot sole of the rat hind paw, and the reaction was evaluated according a scoring (Cold Score). When there was no reaction for 20 seconds after spraying acetone, Score 0 was recorded and the observation was stopped. When there was any reaction for the 20 seconds, the observation was continued until 40 seconds after spraying, and the score was recorded according to the evaluation scale. The acetone spray was done twice each for right and left hind paws, and the total score was calculated. […]
compound,measurement,setting,value
"C[C@H](c1noc2ccccc12)S(N)(=O)=O [Example 13 form I, (1R)-1-(1,2-benzoxazol-3-yl)ethane-1-sulfonamide]",weight reduction in TGA,[1],no weight reduction
same,weight variation in DVS,[2],≤ 1%
same,crystalline stability (DSC),[3],high
"C[C@H](c1noc2ccccc12)S(N)(=O)=O [Example 13 form III, (1R)-1-(1,2-benzoxazol-3-yl)ethane-1-sulfonamide]",relative stability of crystalline forms,[4],most stable form
"CNCC[C@H](Oc1cccc2ccccc12)c1cccs1 [duloxetine, reference compound]",Cold Score in acetone test,[5],significantly lower Cold Score
